Results taken from patent US20110039762A1, “TARGETED ANTIMICROBIAL MOIETIES” (C3 JIAN, INC., priority 2009, published 2011).
“Also recorded” adds a separate entry of the source. Ends that are not written are not given here.

Key:
microorganisms = assay: Peptides having multiple activities (targeting/binding, antimicrobial, growth or phenotype altering)
Source text: In certain embodiments, peptides described herein can have multiple activities. Thus for example, a peptide can have both binding/targeting activity and antimicrobial activity. Such peptides can be used, e.g., in a chimeric construct, for any or all of these properties. Thus, for example, a peptide designated “B” in Table 8 can be used as a targeting peptide. If it is also designated G or M it can also be used for antimicrobial activity.

F. nucleatum = assay: Kill or inhibit growth/proliferation; morphology, biofilm and growth disruption (Tables 5, 6); assay type: cell-based, Fusobacterium nucleatum; parameters: key: A: Peptide aggregates; B: Less hyphal formation; Clumps; Diffuse clumps and small polyps; F: Diffuse growth; H: Thin; I: Growth inhibition; Microcolony formation; Rippled; Small polyps; Thick; W: Halo formation on top, microlonies on bottom; further: test concentration or dose not given here
[1] = system: microorganisms (e.g., bacteria, yeasts, fungi); assay: Targeting peptide binding to target microorganisms (Table 3); conditions: preferably 1x PBS; for Target(s) (microorganisms bound by the targeting peptide): peptide binding in aqueous buffers varied by peptide solubility; for Target(s): microorganism(s) the targeting peptide binds, peptide binding conducted in aqueous buffers varied by peptide solubility
S. pneumoniae [2] = assay: MIC (broth microdilution); assay type: cell-based, Streptococcus pneumoniae
Description: (§1) Typically, the in vitro antimicrobial activity of antimicrobial agents is tested using standard NCCLS bacterial inhibition assays, or MIC tests (see, National Committee on Clinical Laboratory Standards “Performance Standards for Antimicrobial Susceptibility Testing,” NCCLS Document M100-S5 Vol. 14, No. 16, December 1994; “Methods for dilution antimicrobial susceptibility test for bacteria that grow aerobically-Third Edition,” Approved Standard M7-A3, National Committee for Clinical Standards, Villanova, Pa.).
(§2) Briefly, ˜1×10^5 cfu/mL bacteria were diluted in TH (S. mutans), or Mueller-Hinton (MH) broth (all other organisms) and distributed to 96-well plates. Serially-diluted (2-fold) peptides were then added and the plates incubated at 37° C. for 18-24 h. […] All experiments were conducted 10 times.

S. pneumoniae [3] = assay: Kill or inhibit growth/proliferation; morphology, biofilm and growth disruption (Tables 5, 6); assay type: cell-based, Streptococcus pneumoniae; parameters: key: A: Peptide aggregates; B: Less hyphal formation; Clumps; Diffuse clumps and small polyps; F: Diffuse growth; H: Thin; I: Growth inhibition; Microcolony formation; Rippled; Small polyps; Thick; W: Halo formation on top, microlonies on bottom; further: test concentration or dose not given here
B. subtilis [4] = assay: as above; assay type: cell-based, Bacillus subtilis; parameters: key: A: Peptide aggregates; B: Less hyphal formation; Clumps; Diffuse clumps and small polyps; F: Diffuse growth; H: Thin; I: Growth inhibition; Microcolony formation; Rippled; Small polyps; Thick; W: Halo formation on top, microlonies on bottom
S. epidermidis = assay: as above; assay type: cell-based, Staphylococcus epidermidis; parameters: key: A: Peptide aggregates; B: Less hyphal formation; Clumps; Diffuse clumps and small polyps; F: Diffuse growth; H: Thin; I: Growth inhibition; Microcolony formation; Rippled; Small polyps; Thick; W: Halo formation on top, microlonies on bottom
B. subtilis [5] = assay: MIC (broth microdilution); assay type: cell-based, Bacillus subtilis
Description: as §1, §2

S. mutans = assay: Kill or inhibit growth/proliferation; morphology, biofilm and growth disruption (Tables 5, 6); assay type: cell-based, Streptococcus mutans; parameters: key: A: Peptide aggregates; B: Less hyphal formation; Clumps; Diffuse clumps and small polyps; F: Diffuse growth; H: Thin; I: Growth inhibition; Microcolony formation; Rippled; Small polyps; Thick; W: Halo formation on top, microlonies on bottom; further: test concentration or dose not given here
Wherever Organism, effect is given: test concentration or dose not given here.

Row | Substance | Activities (microorganisms) | Organism, effect (morphology, biofilm and growth disruption) (F. nucleatum) | Target(s) (microorganisms bound by the targeting peptide) [1] | also measured
1 | PF-C069: peptide having multiple activities (NALMLREMQLAKNIKVEVTDVLSNKKYC; Peptide with targeting and/or antimicrobial activity) | G B | F. nucleatum (T) | A. naeslundii; also recorded: F. nucleatum; also recorded: P. gingivalis; also recorded: S. mutans; also recorded: T. denticola | 
2 | FQKPFTGEEVEDFQDDDEIPTII [PF-437] | G M |  |  | MIC (S. pneumoniae [2]): S. pneumoniae, 50 μM; Organism, effect (S. pneumoniae [3]): S. pneumoniae (I)
3 | GIVLIGLKLIPLLANVLR [PF-322] | G M |  |  | Organism, effect (B. subtilis [4]): B. subtilis (H); Organism, effect (S. epidermidis): S. epidermidis (C); MIC (B. subtilis [5]): B. subtilis, 50 μM
4 | PF-C137: peptide having multiple activities (QRMYWFKRGFETGDFSAGDTFAELK; Peptide with targeting and/or antimicrobial activity) | G B | F. nucleatum (T) | A. naeslundii; also recorded: F. nucleatum; also recorded: P. gingivalis; also recorded: S. mutans | 
5 | PF-C055: peptide having multiple activities (YNLSIYIYFLHTITIAGLITLPFII; Peptide with targeting and/or antimicrobial activity) | G B | F. nucleatum (T) | A. naeslundii; also recorded: F. nucleatum; also recorded: P. gingivalis; also recorded: S. mutans | Organism, effect (morphology, biofilm and growth disruption) (S. mutans): S. mutans (I)
6 | PF-C291: peptide having multiple activities (HPFLTGTGCPLFLIFRLFFVKAYFSFTVF; Peptide with targeting and/or antimicrobial activity) | G B | F. nucleatum (T) | A. naeslundii; also recorded: F. nucleatum; also recorded: P. gingivalis; also recorded: S. mutans | Organism, effect (morphology, biofilm and growth disruption) (S. mutans): S. mutans (F)
7 | SFMPEIQKNTIPTQMK [PF-512] | G B M |  |  | MIC (S. pneumoniae [2]): S. pneumoniae, 50 μM; Organism, effect (S. pneumoniae [3]): S. pneumoniae (H); Target(s) [1]: S. pneumoniae; also recorded: C. jeikeium
8 | PF-C071: peptide having multiple activities (QVIVKIL; Peptide with targeting and/or antimicrobial activity) | G B | F. nucleatum (T) | A. naeslundii; also recorded: F. nucleatum; also recorded: S. mutans | 
9 | PF-C143: peptide having multiple activities (VVFGGGDRLV; Peptide with targeting and/or antimicrobial activity) | G B | F. nucleatum (C) | A. naeslundii; also recorded: F. nucleatum; also recorded: P. gingivalis; also recorded: S. mutans; also recorded: T. denticola | 
10 | PF-C064: peptide having multiple activities (DEEALEMGANLYAQFAIDFLNSKK; Peptide with targeting and/or antimicrobial activity) | G B | F. nucleatum (T) | A. naeslundii; also recorded: F. nucleatum; also recorded: P. gingivalis; also recorded: S. mutans; also recorded: T. denticola | 
11 | PF-C062: peptide having multiple activities (PLARATEVVATLFIICSLLLYLTR; Peptide with targeting and/or antimicrobial activity) | G B | F. nucleatum (T) | A. naeslundii; also recorded: F. nucleatum; also recorded: P. gingivalis; also recorded: S. mutans; also recorded: T. denticola | Organism, effect (morphology, biofilm and growth disruption) (S. mutans): S. mutans (I)
12 | LGLTAGVAYAAQPTNQPTNQPTNQPTNQPTNQPTNQPRW-NH2 [PF-520] | G B M |  |  | MIC (S. pneumoniae [2]): S. pneumoniae, 50 μM; Organism, effect (S. pneumoniae [3]): S. pneumoniae (M)
13 | LVLRICTDLFTFIKWTIKQRKS [PF-497] | B M |  |  | MIC (B. subtilis [5]): B. subtilis, 50 μM; Target(s) [1]: S. mutans; also recorded: B. subtilis; also recorded: E. coli
14 | PF-C120: peptide having multiple activities (ASLSTMTFKVMELKELIILLCGLTMLMIQTEFV; Peptide with targeting and/or antimicrobial activity) | G B | F. nucleatum (T) | A. naeslundii; also recorded: F. nucleatum; also recorded: P. gingivalis; also recorded: S. mutans; also recorded: T. denticola | 
15 | PF-C145: peptide having multiple activities (YGKESDP; Peptide with targeting and/or antimicrobial activity) | G B | F. nucleatum (C) | A. naeslundii; also recorded: F. nucleatum; also recorded: P. gingivalis; also recorded: S. mutans; also recorded: T. denticola | Organism, effect (morphology, biofilm and growth disruption) (S. mutans): S. mutans (I)
16 | ASKQASKQASKQASKQASKQASRSLKNHLL [PF-523] | B M |  |  | MIC (S. pneumoniae [2]): S. pneumoniae, 50 μM; Target(s) [1]: S. epidermidis; also recorded: M. luteus; also recorded: C. albicans; also recorded: S. pneumoniae; also recorded: C. jeikeium; also recorded: C. jejuni
17 | VYSFLYVLVIVRKLLSMKKRIERL [PF-499] | B M |  |  | MIC (B. subtilis [5]): B. subtilis, 50 μM; Target(s) [1]: S. mutans; also recorded: E. coli
18 | PF-C131: peptide having multiple activities (QWIVAKREIRMHIYCHISVIHVIIFFG; Peptide with targeting and/or antimicrobial activity) | G B | F. nucleatum (T) | A. naeslundii; also recorded: F. nucleatum; also recorded: P. gingivalis; also recorded: S. mutans | Organism, effect (morphology, biofilm and growth disruption) (S. mutans): S. mutans (F)
19 | PF-C214 (GGHKQLVIEPLVSQ; Peptide with targeting and/or antimicrobial activity) |  | F. nucleatum (T) |  | 
20 | PF-C181: peptide having multiple activities (KMRAGQVVFIYKLILVLLFYVLQKLFDLKKGCF; Peptide with targeting and/or antimicrobial activity) | G B | F. nucleatum (T) | P. gingivalis | 
21 | PF-C091: peptide having multiple activities (ASNTPRFVRLTLFNFYSKIWNVTHLFLFNNL; Peptide with targeting and/or antimicrobial activity) | G B | F. nucleatum (T) | A. naeslundii; also recorded: F. nucleatum; also recorded: P. gingivalis; also recorded: S. mutans; also recorded: T. denticola | 
